Experimental data as given in ChEMBL document CHEMBL4811316, “Larvicidal activity and in silico studies of cinnamic acid derivatives against Aedes aegypti (Diptera: Culicidae)” (Bioorg Med Chem, 2021).
In brackets after ≈: the same amount, converted by molar mass.

Columns and labels:
[1] = Larvicidal activity against Aedes aegypti 4th instar larvae measured after 48 hrs; format: ADME
[2] = Larvicidal activity against Aedes aegypti assessed as mortality at 100 ug/ml measured after 24 hrs relative to control; format: ADME; settings: at 100 µg/mL
[3] = Larvicidal activity against Aedes aegypti assessed as mortality at 45 ug/ml measured after 24 hrs relative to control; format: ADME; settings: at 45 µg/mL
[4] = Drug recovery in Aedes aegypti larval extract by HPLC analysis; format: ADME; settings: 24 h
[5] = Drug recovery in Aedes aegypti supernatant measured after 24 hrs by HPLC analysis; format: ADME
[6] = Retention time of the compound; format: physicochemical
[7] = Toxicity in Aedes aegypti assessed as appearance of dark spots in siphon region at 50 ug/ml; settings: dose 50 µg/ml
[8] = Toxicity in Aedes aegypti assessed as appearance of dark spots in thorax region at 50 ug/ml; settings: dose 50 µg/ml
[9] = Toxicity in Aedes aegypti assessed as abdomen curvature at 50 ug/ml; settings: dose 50 µg/ml
[10] = Toxicity in Aedes aegypti assessed as rigid and elongated exoskeleton at 50 ug/ml; settings: dose 50 µg/ml
[11] = Toxicity in Aedes aegypti assessed as appearance of dark spots in intestine region at 50 ug/ml; format: tissue-based; settings: dose 50 µg/ml
[12] = Toxicity in Aedes aegypti assessed as reduction in body mass at 50 ug/ml; settings: dose 50 µg/ml
[13] = Toxicity in Aedes aegypti assessed as translucent in anal papillae at 50 ug/ml; settings: dose 50 µg/ml
[14] = Toxicity in Aedes aegypti assessed as modifications in anal papillae at 50 ug/ml; settings: dose 50 µg/ml

SMILES | LC10 [1] | LC50 [1] | LC90 [1] | mortality [2] | mortality [3] | also measured
O=C(O)/C=C/c1ccc(C(F)(F)F)cc1 | 87.7 µg/mL (≈ 406 µM) | 97.6 µg/mL (≈ 452 µM) | 108.6 µg/mL (≈ 502 µM) | 56.7% | 0% | 
O=C(O)/C=C/c1ccc(Cl)cc1 | 16.2 µg/mL (≈ 88.7 µM) | 26 µg/mL (≈ 142 µM) | 41.8 µg/mL (≈ 229 µM) | 100% | 95% | Drug recovery [4]: 2.7143 µg/mL; Drug recovery [5]: 3.8191 µg/mL; Retention_time [6]: 3.32 min
CCOC(=O)/C=C/c1ccc([N+](=O)[O-])cc1 | 21.3 µg/mL (≈ 96.3 µM) | 35.7 µg/mL (≈ 161 µM) | 60 µg/mL (≈ 271 µM) |  | 98.3% | 
CCOC(=O)/C=C/c1ccc(N(C)C)cc1 |  |  |  | 6.7% |  | 
CCOC(=O)/C=C/c1ccc(C(F)(F)F)cc1 | 11.1 µg/mL (≈ 45.5 µM) | 21.6 µg/mL (≈ 88.4 µM) | 42.2 µg/mL (≈ 173 µM) |  | 98.3% | 
CCOC(=O)/C=C/c1ccc(C#N)cc1 |  |  |  |  | 8.3% | 
CCOC(=O)/C=C/c1ccc(OC(F)(F)F)cc1 | 19.6 µg/mL (≈ 75.3 µM) | 31.3 µg/mL (≈ 120 µM) | 50 µg/mL (≈ 192 µM) |  | 93.3% | 
CCOC(=O)/C=C/C=C/c1ccccc1 | 10 µg/mL (≈ 49.4 µM) | 19.7 µg/mL (≈ 97.4 µM) | 38.8 µg/mL (≈ 192 µM) |  | 93.3% | 
O=C(O)/C=C/c1ccc(OC(F)(F)F)cc1 |  |  |  | 40% |  | 
CCOC(=O)/C=C/c1ccc(C(C)(C)C)cc1 |  |  |  |  | 40% | 
CCOC(=O)/C=C/c1ccc(F)cc1 | 24 µg/mL (≈ 124 µM) | 32.2 µg/mL (≈ 166 µM) | 43.2 µg/mL (≈ 222 µM) |  | 83.3% | 
CCOC(=O)/C=C/c1ccc(Br)cc1 | 18.9 µg/mL (≈ 74.1 µM) | 25.1 µg/mL (≈ 98.4 µM) | 33.3 µg/mL (≈ 131 µM) |  | 100% | 
O=C(O)/C=C/c1ccc(Br)cc1 | 31.7 µg/mL (≈ 140 µM) | 54.4 µg/mL (≈ 240 µM) | 93.2 µg/mL (≈ 410 µM) | 93.3% | 36.7% | 
O=C(O)/C=C/c1ccc([N+](=O)[O-])cc1 | 29 µg/mL (≈ 150 µM) | 37.1 µg/mL (≈ 192 µM) | 47.5 µg/mL (≈ 246 µM) | 96.7% | 86.7% | 
O=C(O)/C=C/c1ccc(F)cc1 |  |  |  | 0% |  | 
CCOC(=O)/C=C/c1ccc(OC)cc1 [4-METHOXY ETHYL CINNAMATE] | 18.2 µg/mL (≈ 88.2 µM) | 26.9 µg/mL (≈ 130 µM) | 39.7 µg/mL (≈ 192 µM) |  | 80% | 
COc1ccc(/C=C/C(=O)O)cc1 [4-METHOXYCINNAMIC ACID] |  |  |  |  | 0% | 
O=C(O)/C=C/c1ccccc1 [CINNAMIC ACID] |  |  |  | 28.3% | 0% | 
CCOC(=O)/C=C/c1ccc(Cl)cc1Cl [ETHYL 3-(2,4-DICHLOROPHENYL)ACRYLATE] | 10.2 µg/mL (≈ 41.6 µM) | 23.6 µg/mL (≈ 96.3 µM) | 54.8 µg/mL (≈ 224 µM) |  | 86.7% | 
CCOC(=O)/C=C/c1ccc(Cl)cc1 [ETHYL 3-(4-CHLOROPHENYL)ACRYLATE] | 3.5 µg/mL (≈ 16.6 µM) | 8.3 µg/mL (≈ 39.4 µM) | 19.7 µg/mL (≈ 93.5 µM) |  | 100% | Activity [7]: Toxic; Activity [8]: Toxic; Activity [9]: Toxic; Activity [10]: Toxic; Activity [11]: Toxic; Activity [12]: Toxic; Activity [13]: Toxic; Activity [14]: Toxic; Drug recovery [4]: 8.2531 µg/mL; Drug recovery [5]: 10.8746 µg/mL; Retention_time [6]: 3.61 min
CCOC(=O)/C=C/c1ccccc1 [ETHYL CINNAMATE] | 30.4 µg/mL (≈ 173 µM) | 35.6 µg/mL (≈ 202 µM) | 41.7 µg/mL (≈ 237 µM) |  | 95% | 
CCOC(=O)/C=C/c1ccc(O)cc1 [ETHYL P-COUMARATE] |  |  |  |  | 0% | 
COP(=S)(OC)Oc1ccc(Sc2ccc(OP(=S)(OC)OC)cc2)cc1 [TEMEFOS] | 1.8 µg/mL (≈ 3.86 µM) | 4.4 µg/mL (≈ 9.43 µM) | 10.4 µg/mL (≈ 22.3 µM) |  |  | 
